Experimental findings from patent US8414883B2, “Parvovirus cancer therapy and combination with chemotherapy” (priority 2007, dated 2013) are described below.

One series relates to Colo357 cells. Briefly: MTT cytotoxicity of H-1PV, gemcitabine and their combination, Colo357. Format: cell-based. As to conditions: Homo sapiens. The protocol: (§1) Survival was measured using MTT assays performed 72 h after infection, in comparison with mock-treated cultures (100%), and is inversely expressed as cell death rate. The data presented are means from 3 independent experiments carried out in quadruplicates.
(§2) For cytotoxicity assessment, cells were seeded in 96-well plates at a density of 2×10^3 cells per well and treated as indicated in the Figure Legends. Cell viability was determined by the colorimetric MTT (3-(4,5-dimethylthiazolyl-2)-2,5-diphenyltetrazolium bromide) assay, as recommended by the manufacturer (Sigma, Deisenhofen, Germany).
(§3) Means and standard deviations (SD) were calculated from triplicate in vitro experiments. […] The isobologram was created from the data obtained for the combination of the two agents. […] CI=1 represents the conservation isobologram and indicates additive effects. CI values below 1 indicate higher than the expected additive effect (synergy).

Series [1] in a line: Toxicological assessment of blood markers in PDAC-bearing rats. Type of series: in vivo, Lewis rats. Conditions: rat model. The protocol:
Blood samples were analyzed for: (A) red blood cell (RBC), platelet, and white blood cell (WBC) counts and related parameters; (B) liver (aspartate amino transferase [ASAT], alanine amino transferase [ALAT]) and kidney (Creatinine) markers. The data shown are means with SD bars.
H-1PV was inoculated intratumorally (i.t.). Blood samples were taken from animal tail vein 2 weeks after the last therapeutic treatment. Toxicological markers were assayed in Strasbourg University Hospital using automated clinical laboratory analysis (Biochemical multiparametric device Biochime ADVIA 160, Siemens, Cergy Pontoise, France).

Another series has as its system HA-RPC cells. Briefly: MTT cytotoxicity on rat PDAC cells. Format: cell-based. Conditions: compared with the human PDAC cells. The method, then:
as §2

The subject of a further series is SU86.86 cells. Briefly: MTT cytotoxicity of H-1PV, gemcitabine and their combination, SU86.86. Type of series: cell-based, human. The method, then: as §1, §2, §3
Another series concerns BxPC3 cells. Briefly: MTT cytotoxicity of H-1PV, gemcitabine and their combination, BxPC3. Conditions: Homo sapiens. Type of series: cell-based. The protocol: as §1, §2, §3
The test system of the next series is T3M-4 cells. Briefly: MTT cytotoxicity of H-1PV, gemcitabine and their combination, T3M-4. Format: cell-based, human. The method, then: as §1, §2, §3
Drug sensitivity of parental and resistant cells was assessed in both MTT and clonogenic survival assays.

For the next series, the system named is Panc-1 cells. Briefly: MTT cytotoxicity of H-1PV, gemcitabine and their combination, Panc-1. Format: cell-based. As to conditions: Homo sapiens. The method, then: as §1, §2, §3
Another series deals with MiaPaCa-2 cells. Briefly: MTT cytotoxicity of H-1PV, gemcitabine and their combination, MiaPaCa-2. Format: cell-based, human. The protocol: as §1, §2, §3
The subject of series [2] is intrapancreatic HA-RPC tumors. Briefly: Survival of PDAC-bearing rats after combined gemcitabine and H-1PV. Conditions: vs. mock treatment or gemcitabine monotherapy. Type of series: in vivo, Lewis rats. The protocol: Animal survival was monitored over a period of 100 days and is presented as Kaplan-Meyer curves, with the median survival and P values indicated below.
Male Lewis rats (Janvier, Le Genest Saint Isle, France) weighing 180-200 g were used for pancreatic carcinoma implantation. 5.10^6 HA-RPC cells were injected in the pancreatic parenchyma. Tumor progression is confined to the pancreatic tail for the first 3 weeks after implantation, leading to lymph node invasion during the 4th week. Liver metastases appear at weeks 5-6 and death with lung metastasis occurs within weeks 6-9.[17] Animals were kept under conventional conditions (temperature 22±2° C., relative humidity 55±10%, dark-light rhythm of 12 hr) with unrestricted access to a balanced pellet diet and water. Animal experiments were performed according to the French and European Community directives for animal care (number 86/609/EEC of Nov. 24, 1986). […]
Mean and standard deviations from triplicate in vitro experiments were calculated. Difference in tumour volume, determined in vivo through mCT-scan size measurements, was tested using a one-way analysis of variance followed by a parametric Student's unpaired t test as Bartlett's test indicated homogeneity of variance. […] The survival curves were generated using the Kaplan-Meier method, and the differences between the curves were assessed by the log-rank test. […]

In a further series the test system is U87MG cells. Briefly: MTT survival of U87MG cells. Format: cell-based, human. Conditions: 3 days, H-1PV 5 pfU/cell, 25 μM TMZ. The protocol:
The percentage of surviving U87MG cells [%] 3 days (A) and 6 days (B) after treatment with H-1PV (Virus), combined treatment with H-1PV and TMZ (V+TMZ), and treatment with TMZ only (TMZ) is shown.
(§4) Initially, the rates of survival of the cell lines used in the study were determined using MTT assays in order to check whether these cell lines are sensitive for H-1PV infection and Temozolomide (TMZ) treatment. In addition, the rates of survival after combined treatment with H-1PV and TMZ were determined. […] The graphs of FIGS. 7-11 depict the results after 3 and 6 days, respectively. After 3 days of treatment distinct effects can already be observed. After 6 days the experiments were terminated since control cells were already confluent. In addition, after 6 days further analyses could not be carried out due to the very low rate of survival (depending on the particular cell line).

A further series relates to U373MG cells. Briefly: MTT survival of U373MG cells. Type of series: cell-based, human. Conditions: U373; 6 days; H-1PV 5 pfU/cell, 25 μM TMZ. The protocol: The percentage of surviving U373MG cells [%] 3 days (A) and 6 days (B) after treatment with H-1PV (Virus), combined treatment with H-1PV and TMZ (V+TMZ), and treatment with TMZ only (TMZ) is shown.
as §4

For a further series, the system named is U343MG cells. Briefly: MTT survival of U343MG cells. Conditions: U343; 6 days; H-1PV 5 pfU/cell, 25 μM TMZ. Format: cell-based, human. The method, then: The percentage of surviving U343MG cells [%] 3 days (A) and 6 days (B) after treatment with H-1PV (Virus), combined treatment with H-1PV and TMZ (V+TMZ), and treatment with TMZ only (TMZ) is shown.
as §4

Entries after “also recorded” stand apart in the source; their conditions may differ. Like-named read-outs stand apart in the source and are kept apart here.

As a reminder, the EC50 is the concentration that produces a half-maximal response. Take `Nc1ccn([C@@H]2O[C@H](CO)[C@@H](O)C2(F)F)c(=O)n1` [gemcitabine]: the EC50 in the series on Colo357 cells (COLO357, read-out: EC50 mono. gemcitabine) was 1.5 ng/mL; in the series on Colo357 cells (read-out: EC50 comb. 1 gemcitabine, Colo357, combined with H-1PV MOI 1), 1.3 ng/mL; in the series with Colo357 cells (read-out: EC50 comb. 2 gemcitabine, Colo357, combined with H-1PV MOI 10), 0.6 ng/mL; in the series on SU86.86 cells (Homo sapiens, SU.86.86, read-out: EC50 gemcitabine monotherapy (in brackets)), 2.5 ng/mL; in the series on BxPC3 cells (BXPC-3, read-out: EC50 comb. 1 gemcitabine, BxPC3, combined with H-1PV MOI 1), 20 ng/mL; in the series with BxPC3 cells (BXPC-3, read-out: EC50 comb. 2 gemcitabine, BxPC3, combined with H-1PV MOI 10) it was 7 ng/mL. The EC50 in the series on BxPC3 cells (BXPC-3, read-out: EC50 mono. gemcitabine) is 25 ng/mL; with T3M-4 cells (Homo sapiens, T3M4, read-out: EC50 gemcitabine monotherapy (in brackets)), 1.2 ng/mL; in the series on Panc-1 cells (PANC-1, read-out: EC50 mono. gemcitabine), 400 ng/mL; with Panc-1 cells (read-out: EC50 comb. 1 gemcitabine, Panc-1, combined with H-1PV MOI 1), 200 ng/mL; in the series with Panc-1 cells (read-out: EC50 comb. 2 gemcitabine, Panc-1, combined with H-1PV MOI 10), 60 ng/mL; in the series on MiaPaCa-2 cells (Homo sapiens, MIA PaCa-2, read-out: EC50 gemcitabine monotherapy (in brackets)), 9 ng/mL. In series [1] (2 weeks after last treatment), the “bilirubin, ASAT, and ALAT levels” value is listed as “elevated”. Also, in series [1] (2 weeks after last treatment), the “reticulocyte and monocyte levels” value is given as “drop”. Besides, the Creatinine levels result in [1] (kidney clearance) is “remained stable”. The “sensitivity to virus and gemcitabine toxicity” value in the series on HA-RPC cells is given as “same range of sensitivity”. Besides, the “EC75 comb. 1 gemcitabine” value with SU86.86 cells (SU86.86, combined with H-1PV MOI 1) was 8.0 ng/mL; in the series on T3M-4 cells (T3M-4, combined with H-1PV MOI 1) it was 2.4 ng/mL; with MiaPaCa-2 cells (MiaPaCa-2, combined with H-1PV MOI 1), 18 ng/mL. For the same compound, the “EC75 comb. 2 gemcitabine” value with SU86.86 cells (SU86.86, combined with H-1PV MOI 10) came to 1.3 ng/mL; with T3M-4 cells (T3M-4, combined with H-1PV MOI 10) it was 1.5 ng/mL; with MiaPaCa-2 cells (MiaPaCa-2, combined with H-1PV MOI 10), 2.0 ng/mL. For the same compound, the EC75 mono. gemcitabine amounted to 17 ng/mL with SU86.86 cells (SU86.86, gemcitabine alone, MTT); 2.5 ng/mL with T3M-4 cells (T3M-4, gemcitabine alone, MTT); 30 ng/mL in the series with MiaPaCa-2 cells (MiaPaCa-2, gemcitabine alone, MTT). Moreover, the “survival of PDAC-bearing rats” value in series [2] is “transient protection”.

Take `Cn1nnc2c(C(N)=O)ncn2c1=O` [TMZ, Temozolomide]: the “cells lysed / killed” value in the series on U87MG cells was “about 20%”. In the series on U373MG cells, the “cells lysed / cytotoxic effect” value is listed as “no cytotoxic effect; also recorded: did not result in cell death”. Besides, in the series with U343MG cells, the cells killed result was “more than 80%”.
